Experimental data published in ChEMBL document CHEMBL5505950, “An updated review of chemical compounds with anti-Toxoplasma gondii activity” (Eur J Med Chem, 2023).

Target: T1, Bifunctional dihydrofolate reductase-thymidylate synthase (Toxoplasma gondii, UniProt Q07422)
T1 sequence (Q07422 whole entry): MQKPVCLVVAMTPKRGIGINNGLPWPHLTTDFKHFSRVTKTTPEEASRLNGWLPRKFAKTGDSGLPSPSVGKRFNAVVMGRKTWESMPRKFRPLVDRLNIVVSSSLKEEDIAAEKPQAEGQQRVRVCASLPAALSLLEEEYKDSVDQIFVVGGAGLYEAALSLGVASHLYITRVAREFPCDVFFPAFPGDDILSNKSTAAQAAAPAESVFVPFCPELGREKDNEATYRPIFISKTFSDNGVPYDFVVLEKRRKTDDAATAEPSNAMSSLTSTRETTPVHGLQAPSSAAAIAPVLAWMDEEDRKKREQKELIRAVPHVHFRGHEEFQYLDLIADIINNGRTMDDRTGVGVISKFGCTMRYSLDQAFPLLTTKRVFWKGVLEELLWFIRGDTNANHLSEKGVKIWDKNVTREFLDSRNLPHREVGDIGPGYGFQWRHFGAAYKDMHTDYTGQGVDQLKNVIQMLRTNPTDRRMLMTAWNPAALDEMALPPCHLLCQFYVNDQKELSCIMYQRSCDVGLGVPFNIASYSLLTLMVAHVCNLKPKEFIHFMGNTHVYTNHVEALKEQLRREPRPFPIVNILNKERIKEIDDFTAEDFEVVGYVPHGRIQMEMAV
Assay: Inhibition of Toxoplasma gondii Dihydrofolate reductase
Settings: not given

Q: For `CCc1sc2nc(N)[nH]c(=O)c2c1Sc1ccc2ccccc2c1`, which IC50 is on record?
A: The IC50 was 0.008 µM.

Q: With `CCc1sc2nc(N)[nH]c(=O)c2c1Sc1ccc(C(=O)N[C@@H](CCC(=O)O)C(=O)O)cc1` as the compound, how does the IC50 read?
A: The IC50 was 0.002 µM.

Q: With `COc1ccc(CCCCCCC(=O)O)cc1Cc1cnc2nc(N)nc(N)c2c1OC` as the compound, how does the IC50 read?
A: Its IC50 is 0.003 µM.

Q: Which IC50 does the source give for `COc1ccc(C#Cc2cccc(C(=O)O)c2)cc1Cc1cnc2nc(N)nc(N)c2c1OC` here?
A: The IC50 was 0.005 µM.

Q: With `CCc1sc2nc(N)[nH]c(=O)c2c1Sc1ccc([N+](=O)[O-])cc1` as the compound, how does the IC50 read?
A: The IC50 was 0.008 µM.

Q: For `CCc1sc2nc(N)[nH]c(=O)c2c1Sc1ccc(Br)cc1`, which IC50 is on record?
A: The IC50 was 0.01 µM.

Tested on: Toxoplasma gondii
Assay: Antiparasitic activity against Toxoplasma gondii RH tachyzoites infected in human HFF cells assessed as parasitic growth inhibition
Format: functional
Settings: time 72 hrs, read-out: ED50 (the source's name)

Q: With `Cc1c(NC(=O)c2ccc(C(C)(C)C)cc2)cccc1-c1cn(C)c(=O)c(Nc2ccc(C(=O)N3CCOCC3)cc2)n1` as the compound, how does the EC50 read?
A: The EC50 was 14.6 µM.

Q: Which EC50 does the source give for `CCOc1ccc2cc(-c3nn(C(C)(C)C)c(N)c3C(N)=O)cnc2c1` here?
A: The EC50 was 2.76 µM.

Q: For `CO/N=C(\C(=O)OC)c1ccccc1CO/N=C(\C)c1cccc(C(F)(F)F)c1`, which EC50 is on record?
A: The EC50 was 0.5 µM.

Q: For `CC[C@]1(C)NC(=O)[C@H](CCCCCC(=O)[C@@H](C)OC(C)=O)NC(=O)[C@H]2C[C@H](C)CN2C(=O)[C@H](Cc2ccccc2)NC1=O`, which EC50 is on record?
A: Its EC50 is 0.001 µM.

Q: Which EC50 does the source give for `CNc1[nH]c(Nc2ccc(C(=O)N3CCOCC3)cc2OC)nc2ncc(Cl)c1-2` here?
A: Its EC50 is 5.88 µM.

Q: For `CCC(=O)CCCCC[C@@H]1NC(=O)[C@H]2C[C@H](C)CN2C(=O)[C@H](Cc2ccccc2)NC(=O)[C@](C)(CC)NC1=O`, which EC50 is on record?
A: The EC50 was 0.011 µM.

Q: With `CC(C)(C)C1CCC(CC2C(=O)C(=O)c3ccccc3C2O)CC1` (stereo unspecified) as the compound, how does the EC50 read?
A: The EC50 was 1.18 µM.

Q: For `O=C(NC1CC1)c1ccc(N2CCC(Cc3ccccc3)CC2)nc1`, which EC50 is on record?
A: Its EC50 is 2.81 µM.

Q: With `O=C1C(O)=C([C@H]2CC[C@H](c3ccc(Cl)cc3)CC2)C(=O)c2ccccc21` [ATOVAQUONE] as the compound, how does the EC50 read?
A: The EC50 was 0.18 µM.

Q: Which EC50 does the source give for `CO/C=C(\C(=O)OC)c1ccccc1Oc1cc(Oc2ccccc2C#N)ncn1` [Azoxystrobin] here?
A: The EC50 was 7.05 µM.

Q: Which EC50 does the source give for `OCCOCCN1CCN(C(c2ccccc2)c2ccc(Cl)cc2)CC1` (stereo unspecified) [HYDROXYZINE] here?
A: The EC50 was 2.5 µM.

Q: Which EC50 does the source give for `Cc1coc2c1C(=O)C(=O)c1c-2ccc2c1CCCC2(C)C` [TANSHINONE IIA] here?
A: Its EC50 is 1 µM.

Tested on: not listed separately
Assay: Inhibition of Toxoplasma gondii Farnesyl pyrophosphate synthase
Settings: not given

Q: For `CCCCCCCCCC(O)(P(=O)(O)O)P(=O)(O)O`, which IC50 is on record?
A: The IC50 was 0.13 µM.

Tested on: not listed separately
Assay: Inhibition of recombinant Toxoplasma gondii Farnesyl pyrophosphate synthase
Settings: not given

Q: With `CCCCCCCSCC(P(=O)(O)O)P(=O)(O)O` as the compound, how does the IC50 read?
A: The IC50 was 0.069 µM.

Q: With `CCCCCCCCCCSCC(P(=O)(O)O)P(=O)(O)O` as the compound, how does the IC50 read?
A: Its IC50 is 0.021 µM.

Q: With `CCCCCCC[S+]([O-])CC(P(=O)(O)O)P(=O)(O)O` (stereo unspecified) as the compound, how does the IC50 read?
A: The IC50 was 0.009 µM.

Q: Which IC50 does the source give for `CCCCCCCCCCS(=O)(=O)CC(P(=O)(O)O)P(=O)(O)O` here?
A: The IC50 was 0.27 µM.

Tested on: Toxoplasma gondii
Assay: Antiparasitic activity against Toxoplasma gondii tachyzoites infected in hTRET cells assessed as parasitic growth inhibition
Format: functional, organism-based
Settings: not given

Q: Which EC50 does the source give for `CCCCCCCSCC(P(=O)(O)O)P(=O)(O)O` here?
A: Its EC50 is 0.97 µM.

Q: Which EC50 does the source give for `CCCCCCCCCCSCC(P(=O)(O)O)P(=O)(O)O` here?
A: The EC50 was 1.8 µM.

Q: Which EC50 does the source give for `CCCCCCC[S+]([O-])CC(P(=O)(O)O)P(=O)(O)O` (stereo unspecified) here?
A: The EC50 was 5 µM.

Q: For `CCCCCCCNCC(P(=O)(O)O)P(=O)(O)O`, which EC50 is on record?
A: The EC50 was over 10 µM.

Q: Which EC50 does the source give for `CCCCCCCCCCS(=O)(=O)CC(P(=O)(O)O)P(=O)(O)O` here?
A: Its EC50 is 0.11 µM.

Q: Which EC50 does the source give for `O=P(O)(O)C(CSCCOc1cccc(Oc2ccccc2)c1)P(=O)(O)O` here?
A: The EC50 was 0.67 µM.

Tested on: Toxoplasma gondii
Assay: Antiparasitic activity against Toxoplasma gondii EGS infected in human HFF cells
Format: functional
Settings: read-out: ED50 (the source's name)

Q: With `O=C(CCCCCCC(=O)Nc1ccccc1)NO` [VORINOSTAT] as the compound, how does the EC50 read?
A: Its EC50 is 0.07 µM.

Tested on: Toxoplasma gondii
Assay: Antiparasitic activity against Toxoplasma gondii assessed as parasitic growth inhibition
Format: functional, organism-based
Settings: not given

Q: With `N#CSCCOc1ccc(Oc2ccccc2)cc1` as the compound, how does the EC50 read?
A: Its EC50 is 4.8 µM.

Q: With `N#C[Se]CCOc1cccc(Oc2ccccc2)c1` as the compound, how does the EC50 read?
A: The EC50 was 2.87 µM.

Q: With `N#C[Se]CCOc1ccc(Oc2ccccc2)cc1` as the compound, how does the EC50 read?
A: The EC50 was 3.7 µM.

Tested on: Toxoplasma gondii
Assay: Antiparasitic activity against Toxoplasma gondii tachyzoites infected in hTRET cells assessed as reduction in parasitic growth
Format: functional
Settings: read-out: ED50 (the source's name)

Q: With `CCCCCCCCCC(O)(P(=O)(O)O)P(=O)(O)O` as the compound, how does the EC50 read?
A: Its EC50 is 0.85 µM.

Q: With `COC(=O)/C=C1/S/C(=N/N=C(/C)c2ccccn2)NC1=O` as the compound, how does the EC50 read?
A: Its EC50 is 0.2 µM.

Q: Which EC50 does the source give for `COC(=O)/C=C1/S/C(=N/N=C(C)\C=N\O)NC1=O` here?
A: Its EC50 is 0.49 µM.

Q: Which EC50 does the source give for `C[C@@H](COC(=O)N1CCC(n2c(=O)n(C)c3ccccc32)CC1)N(Cc1ccccc1)Cc1ccccc1` here?
A: Its EC50 is 0.2 µM.

Q: For `O=C(OCCOCc1ccccc1)N1CCC(n2c(=O)[nH]c3ccccc32)CC1`, which EC50 is on record?
A: Its EC50 is 0.5 µM.

Q: With `COC(=O)/C=C1/S/C(=N/N=C\c2ccccc2O)NC1=O` as the compound, how does the EC50 read?
A: The EC50 was 0.66 µM.

Q: Which EC50 does the source give for `C[C@@H](COC(=O)NCCCn1c(=O)n(C)c2ccccc21)N(Cc1ccccc1)Cc1ccccc1` here?
A: The EC50 was 0.38 µM.

Tested on: not listed separately
Assay: Inhibition of Toxoplasma gondii Heptaprenyl Diphosphate Synthase Coq1 expressed in Escherichia coli BL21
Settings: not given

Q: With `CCCCCCCCCC(O)(P(=O)(O)O)P(=O)(O)O` as the compound, how does the IC50 read?
A: The IC50 was 2.13 µM.
